Assay results published in the CheMixHub viscosity set.

Test: xn = mol fraction of the nth substance listed

ClC(Cl)C(Cl)Cl + CCCCCC
303.15 K, 101 kPa
Conditions | viscosity [mPa·s]
x1 = 0.115 | 0.316
x1 = 0.2303 | 0.363
x1 = 0.2991 | 0.411
x1 = 0.4277 | 0.516
x1 = 0.5521 | 0.633
x1 = 0.6234 | 0.71
x1 = 0.7182 | 0.83
x1 = 0.8039 | 0.966
x1 = 0.8856 | 1.133
x1 = 0.9344 | 1.256

ClC(Cl)C(Cl)Cl + CCCC(=O)OCC
viscosity [mPa·s], 101.3 kPa
Conditions | 308.15 K | 318.15 K
x2 = 0.0477 | 1.326 | 1.209
x2 = 0.1018 | 1.243 | 1.135
x2 = 0.2004 | 1.11 | 1.019
x2 = 0.2603 | 1.04 | 0.957
x2 = 0.3965 | 0.906 | 0.837
x2 = 0.4979 | 0.824 | 0.764
x2 = 0.6073 | 0.753 | 0.699
x2 = 0.6955 | 0.701 | 0.652
x2 = 0.8023 | 0.649 | 0.605
x2 = 0.9007 | 0.61 | 0.569
x2 = 0.9705 | 0.585 | 0.547

CCCC[N+](CCCC)(CCCC)CCCC.F[B-](F)(F)F + CC#N
viscosity [mPa·s], 100 kPa
Conditions | x1 = 0.004121 | x1 = 0.008132 | x1 = 0.01219 | x1 = 0.01614 | x1 = 0.02013 | x1 = 0.0241 | x1 = 0.02789 | x1 = 0.03177 | x1 = 0.03562 | x1 = 0.0394
293.15 K | 0.423 | 0.446 | 0.472 | 0.499 | 0.528 | 0.559 | 0.591 | 0.625 | 0.661 | 0.698
298.15 K | 0.404 | 0.426 | 0.45 | 0.475 | 0.502 | 0.532 | 0.561 | 0.594 | 0.628 | 0.663
303.15 K | 0.385 | 0.406 | 0.429 | 0.453 | 0.48 | 0.507 | 0.536 | 0.567 | 0.599 | 0.633
308.15 K | 0.369 | 0.389 | 0.411 | 0.433 | 0.458 | 0.484 | 0.511 | 0.54 | 0.57 | 0.602
313.15 K | 0.354 | 0.373 | 0.393 | 0.414 | 0.437 | 0.462 | 0.487 | 0.514 | 0.543 | 0.572
318.15 K | 0.34 | 0.358 | 0.377 | 0.397 | 0.418 | 0.441 | 0.464 | 0.489 | 0.516 | 0.544
323.15 K | 0.327 | 0.344 | 0.362 | 0.38 | 0.4 | 0.422 | 0.443 | 0.467 | 0.491 | 0.517

ClC(Cl)C(Cl)Cl + CCOC(C)=O
303.15 K, 101.3 kPa
Conditions | viscosity [mPa·s]
x2 = 0.15 | 1.358
x2 = 0.2009 | 1.306
x2 = 0.3141 | 1.18
x2 = 0.3963 | 1.08
x2 = 0.4968 | 0.9507
x2 = 0.5996 | 0.8225
x2 = 0.7128 | 0.6857
x2 = 0.8056 | 0.5773
x2 = 0.9246 | 0.4625

ClC(Cl)C(Cl)Cl + C1CCOC1
303.15 K, 101 kPa
Conditions | viscosity [mPa·s]
x2 = 0.0912 | 1.403
x2 = 0.1846 | 1.347
x2 = 0.2753 | 1.283
x2 = 0.4617 | 1.108
x2 = 0.5426 | 1.015
x2 = 0.6763 | 0.8466
x2 = 0.7791 | 0.7155
x2 = 0.8994 | 0.5718
x2 = 0.9513 | 0.515

COCCOCCOC + CCOC(=O)CCC(=O)OCC
viscosity [mPa·s], 101.33 kPa
Conditions | x1 = 0.1002 | x1 = 0.2023 | x1 = 0.3012 | x1 = 0.4033 | x1 = 0.5032 | x1 = 0.6024 | x1 = 0.7034 | x1 = 0.801 | x1 = 0.9025
298.15 K | 2.198 | 2.009 | 1.843 | 1.681 | 1.535 | 1.412 | 1.296 | 1.187 | 1.077
303.15 K | 1.951 | 1.792 | 1.65 | 1.513 | 1.386 | 1.283 | 1.184 | 1.086 | 0.994
308.15 K | 1.737 | 1.599 | 1.476 | 1.355 | 1.251 | 1.163 | 1.082 | 0.997 | 0.92
313.15 K | 1.559 | 1.438 | 1.33 | 1.229 | 1.139 | 1.061 | 0.989 | 0.919 | 0.852
318.15 K | 1.406 | 1.299 | 1.206 | 1.115 | 1.034 | 0.969 | 0.908 | 0.849 | 0.792

COCCOCCOC + CCCCCCCCCC
viscosity [mPa·s], 101.33 kPa
Conditions | x1 = 0.1008 | x1 = 0.2018 | x1 = 0.3025 | x1 = 0.3984 | x1 = 0.4993 | x1 = 0.6592 | x1 = 0.701 | x1 = 0.7987 | x1 = 0.9013
298.15 K | 0.798 | 0.788 | 0.787 | 0.79 | 0.8 | 0.834 | 0.846 | 0.869 | 0.915
308.15 K | 0.689 | 0.682 | 0.679 | 0.68 | 0.688 | 0.716 | 0.726 | 0.746 | 0.784
318.15 K | 0.597 | 0.59 | 0.589 | 0.589 | 0.597 | 0.618 | 0.627 | 0.643 | 0.674

Oc1ccccc1 + CCCCN(CCCC)CCCC
298.16 K, 101 kPa
Conditions | viscosity [mPa·s]
x1 = 0.5219 | 9.41
x1 = 0.6008 | 14.9
x1 = 0.6531 | 23.52
x1 = 0.6723 | 27.66
x1 = 0.7083 | 43.54
x1 = 0.7386 | 64.37
x1 = 0.7532 | 78.43
x1 = 0.7783 | 108.3
x1 = 0.7981 | 126.2
x1 = 0.8207 | 131.2
x1 = 0.8248 | 125.7
x1 = 0.8491 | 110.5
x1 = 0.8704 | 84.32
x1 = 0.9022 | 56.08
x1 = 0.9213 | 40.37
x1 = 0.9711 | 20.65
